Data taken from patent publication US12042481B2, “Use of (1R,5S)-(+)-1-(naphthalen-2-yl)-3-azabicyclo[3.1.0]hexane in the treatment of conditions affected by monoamine neurotransmitters” (priority 2011, dated 2024).

Legend:
[1] = molecular target: T1, recombinant human NE transporter (Homo sapiens, UniProt P23975); test: Inhibition of [3H]norepinephrine uptake in MDCK cells transfected with the NE uptake transporter; assay type: cell-based
T1 construct: host or cells: MDCK
Experimental: The ability of (1R,5S)-(+)-1-(naphthalen-2-yl)-3-azabicyclo[3.1.0]hexane for inhibiting transport of norepinephrine (NE) and/or dopamine (DA) and/or serotonin (5-HT) was evaluated using cell lines (such as the HEK 293 cell line) that stably express recombinant human NE, DA, and 5-HT transporters, respectively. Techniques for stably transfecting mammalian cell lines with neurotransmitter transporters and measuring the effects of drugs on amine uptake have been described in the literature (e.g., Eshleman A J, J Pharmacol Exp Ther 289:877-885, 1999) and are well known to those skilled in the art
Monoamine uptake was determined in MDCK, CHO-K1, and HEK-293 cell lines respectively transfected with NE, DA, and 5-HT uptake transporters by MDS Pharma Services (Taipei, Taiwan 112, R. O. C.). The cells were incubated in 5 mM Tris-HCl, and 7.5 mM HEPES buffer, pH 7.1, containing 120 mM NaCl, 5.4 mM KCl, 1.2 mM CaCl2, 1.2 mM MgSO4, 5 mM D-glucose, and 1 mM Ascorbic Acid. The cellular homogenates were incubated with radioligands and various concentrations of drugs for 10 minutes at 25° C. The [^3H]-radioligands incorporated into the cells were determined according to published methods using liquid scintillation counting (Perovic and Müller 1995; Eshleman et al., 1999). […]

[2] = tested on: monoamine uptake transporters; test: Microdialysis in rat striatum (extracellular DA, HVA); assay type: in vivo
Experimental: (§1) To evaluate the effect of (1R,5S)-(+)-1-(naphthalen-2-yl)-3-azabicyclo[3.1.0]hexane on monoamine uptake transporters in vivo, microdialysis studies were performed in rat brain regions.
(§2) Microdialysis studies were conducted using male Wistar rats (250-300 g) bred at the Institute of Pharmacology, the Polish Academy of Sciences, Krakow, Poland. The rats (250-300 g) were housed on a 12 h/12 h light/dark cycle at a constant temperature and humidity, and were provided with food and water ad libitum. The microdialysis procedure has been previously described (Popik et al., 2006). Briefly, the rats were anaesthetized with ketamine (75 mg/kg IM) and xylazine (10 mg/kg IM), placed in a stereotaxic apparatus (David Kopf Instruments, Tujunga, CA, USA) with their skulls exposed. Small holes were drilled in the skull for insertion of the vertical microdialysis probes into the prefrontal cortex and striatum, respectively using the following coordinates: 2.9 mm anterior from the bregma, 0.8 mm lateral from the sagittal suture and −4.5 ventral from the dura surface (prefrontal cortex); 1.8 mm anterior from the bregma, 2.7 mm lateral from the sagittal suture and −7.0 mm ventral from the dura surface (striatum) (Paxinos and Watson, 1998). Microdialysis probes were constructed by inserting two fused silica tubes (30 and 35 mm long, 150 μm o.d.; Polymicro Technologies Inc., Phoenix, AZ, USA) into a microdialysis fiber (220 μm o.d.; AN69, Hospal, Bologna, Italy). The tube assembly was placed in a stainless steel cannula (22 G, 10 mm) forming the shaft of the probe. Portions of the inlet and outlet tubes were individually placed inside polyethylene PE-10 tubing and were glued for protection. The free end of the dialysis fibre was sealed, and 3 mm of the exposed length used for dialysis in prefrontal cortex and 4 mm for striatum. One day after the surgery and probe implantation, the inlet of the dialysis probes was connected to a syringe pump (BAS, IN, USA) which delivered an artificial cerebrospinal fluid (aCSF) composed of [in mM]: NaCl 145, KCl 2.7, MgCl2 1.0, CaCl2 1.2; pH=7.4 at a flow rate of 1.5 μl/min. After a two hour rinsing period to stabilize the extracellular level of neurotransmitters, 3-4 baseline samples were collected in 20 minute sampling periods. Next, (1R,5S)-(+)-1-(naphthalen-2-yl)-3-azabicyclo[3.1.0]hexane (dissolved in 0.9% saline solution) at doses of 10 or 20 mg/kg intraperioneally (i.p.) was administered to the animals at 4 ml/kg and consequent dialysate fractions were collected every 20 min for 3 hrs. At the end of the experiments the rats were sacrificed and their brains were histologically examined to validate the correct probe placement
Dopamine, and serotonin (5-HT) were analysed by HPLC with electrochemical detection. […] The flow rate was 0.5 ml/min, and the applied potential of a 3 mm glassy carbon electrode was +600 mV with a sensitivity of 2 nA/V. Norepinephrine was measured using HPLC system equipped with a P580 pump (Dionex, CA, USA) connected to a BAS injection valve with a 10 μI injection loop and a BDS-Hypersil analytical column (2.0×100 mm, a 3 μm, Thermo Electron Corp., UK). […] NE in the dialysates was detected with a BAS UniJet radial flow detector cell coupled to a LC-4B amperometric detector (BAS, IN, USA). […]

[3] = tested on: monoamine uptake transporters; test: Microdialysis in rat prefrontal cortex (extracellular NE, DA, 5-HT); assay type: in vivo
Experimental: as §1, §2
Dopamine, and serotonin (5-HT) were analysed by HPLC with electrochemical detection. Chromatography was performed using an LC-10 AD pump (Shimadzu Europa GmbH, Warszawa, Poland), an LC-4B amperometric detector with a cross-flow detector cell (BAS, IN, USA) and BDS-Hypersil C18 analytical column (3×100 mm, 3 μm, Thermo Electron Corp., UK). The mobile phase was composed of 0.1 M monochloracetic acid adjusted to pH=3.7 with 3 M sodium hydroxide, 0.5 mM EDTA, 25 mg/L 1-octanesulfonic acid sodium salt, 5.7% methanol, and 2.5% acetonitrile. The flow rate was 0.5 ml/min, and the applied potential of a 3 mm glassy carbon electrode was +600 mV with a sensitivity of 2 nA/V. Norepinephrine was measured using HPLC system equipped with a P580 pump (Dionex, CA, USA) connected to a BAS injection valve with a 10 μI injection loop and a BDS-Hypersil analytical column (2.0×100 mm, a 3 μm, Thermo Electron Corp., UK). The mobile phase was composed of 0.05 M potassium dihydrogen phosphate (adjusted to pH=3.7 with ortho-phosphoric acid), 0.5 mM EDTA, 150 mg/L 1-octanesulfonic acid sodium salt, 10 mM NaCl, and 1.2% acetonitrile. The flow rate was 180 μl/min. NE in the dialysates was detected with a BAS UniJet radial flow detector cell coupled to a LC-4B amperometric detector (BAS, IN, USA). […]

rats = test: Forced swim test in rats; assay type: in vivo, rat; conditions: 40 mg/kg p.o., data not shown

T1 sequence (P23975 whole entry): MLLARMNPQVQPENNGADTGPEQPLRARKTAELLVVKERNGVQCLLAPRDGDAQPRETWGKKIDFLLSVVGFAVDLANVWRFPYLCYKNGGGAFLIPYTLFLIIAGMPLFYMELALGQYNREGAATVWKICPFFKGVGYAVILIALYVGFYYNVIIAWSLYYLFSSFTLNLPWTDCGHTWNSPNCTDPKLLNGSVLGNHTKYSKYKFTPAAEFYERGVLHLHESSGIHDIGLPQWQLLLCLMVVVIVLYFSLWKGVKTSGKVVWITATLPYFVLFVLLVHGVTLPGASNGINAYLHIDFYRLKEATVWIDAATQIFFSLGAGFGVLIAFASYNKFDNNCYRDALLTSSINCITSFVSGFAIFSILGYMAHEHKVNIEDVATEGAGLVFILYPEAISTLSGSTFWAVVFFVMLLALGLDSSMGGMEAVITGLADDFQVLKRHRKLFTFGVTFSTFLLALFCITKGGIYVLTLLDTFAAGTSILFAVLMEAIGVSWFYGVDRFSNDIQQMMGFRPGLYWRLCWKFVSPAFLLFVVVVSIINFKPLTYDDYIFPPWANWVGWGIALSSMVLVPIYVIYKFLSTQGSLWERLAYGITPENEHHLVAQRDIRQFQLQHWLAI

For `c1ccc2cc([C@]34CNC[C@H]3C4)ccc2c1` [(1R,5S)-(+)-1-(naphthalen-2-yl)-3-azabicyclo[3.1.0]hexane], the IC50 [1] was 6 nM, the “duration of effect on extracellular DA” value [2] was “over 3 hours” and the “effect on extracellular concentrations of HVA (metabolite of DA)” value [2] was “decreased”. For the same compound, the “time within which extracellular DA was markedly increased” value [2] was no more than 40 min, the “peak increase of extracellular DA” value ([2]; 10 mg/kg i.p.) was “over 275 % of baseline” and the “peak increase of extracellular DA” value ([2]; 20 mg/kg i.p.) was > 375 % of baseline. For the same compound, the “time by which extracellular 5-HT was markedly increased” value [3] was no more than 40 min, the “peak increase of extracellular NE” value ([3]; 10 mg/kg i.p.) was “over 325 % of baseline” and the “peak increase of extracellular NE” value ([3]; 20 mg/kg i.p.) was > 375 % of baseline. The “duration of increase of extracellular DA” value ([3]; 10 and 20 mg/kg i.p.) was “over 3 hours”, the “duration of increase of extracellular NE” value ([3]; 10 and 20 mg/kg i.p.) was “over 3 hours” and the “peak increase of extracellular 5-HT” value ([3]; 10 and 20 mg/kg i.p.) was 300 % of baseline. The “time after administration at which extracellular NE was markedly increased” value ([3]; 10 and 20 mg/kg i.p.) was 40 min, the “time by which extracellular DA was increased” value ([3]; 10 and 20 mg/kg i.p.) was no more than 20 min and the “duration of significant increase of extracellular 5-HT” value ([3]; both doses 10 and 20 mg/kg i.p.) was “over 3 hours”. The “peak increase of extracellular DA” value ([3]; the two doses 10 and 20 mg/kg i.p.) was 240-300 % of baseline and the “immobility in the forced swim test” value (rats) was “reduced immobility”.
